Source: patent publication US9333202B2, “Non-retinoid antagonists for treatment of age-related macular degeneration and stargardt disease” (THE TRUSTEES OF COLUMBIA UNIVERSITY IN THE CITY OF NEW YORK, priority 2012, dated 2016)
Entries after “also recorded” stand apart in the source; their conditions may differ.

Columns and labels:
ERG b-wave = ERG b-wave after photobleaching; conditions: in vivo
RBP4-TTR interaction = RBP4-TTR interaction (Homo sapiens, UniProt P02753); test: HTRF/TR-FRET assay for retinol-dependent RBP4-TTR interaction (1 μM retinol); assay type: biochemical; parameters: human RBP4 fragment (amino acids 19-201) was expressed in the Gold(DE3)pLysS E. coli strain; made in house; host or cells: E. coli Gold(DE3)pLysS (Stratagene), pMAL-c4x vector
Text: Bacterially expressed MBP-RBP4 and untagged TTR were used in this assay. For the use in the TR-FRET assay the maltose binding protein (MBP)-tagged human RBP4 fragment (amino acids 19-201) was expressed in the Gold(DE3)pLysS E. coli strain (Stratagene) using the […] vector. Following cell lysis, recombinant RBP4 was purified from the soluble fraction using the ACTA FPLC system (GE Healthcare) equipped with the 5-ml the MBP Trap HP column. Human untagged TTR was purchased from Calbiochem. Untagged TTR was labeled directly with Eu^3+ Cryptate-NHS using the HTRF Cryptate Labeling kit from CisBio following the manufacturer's recommendations. HTRF assay was performed in white low volume 384 well plates (Greiner-Bio) in a final assay volume of 16 μl per well. The reaction buffer contained 10 mM Tris-HCl pH 7.5, 1 mM DTT, 0.05% NP-40, 0.05% Prionex, 6% glycerol, and 400 mM KF. Each reaction contained 60 nM MBP-RBP4 and 2 nM TTR-Eu along with 26.7 nM of anti-MBP antibody conjugated with d2 (Cisbio). Titration of test compounds in this assay was conducted in the presence of 1 μM retinol. All reactions were assembled in the dark under dim red light and incubated overnight at +4° C. wrapped in aluminum foil. TR-FRET signal was measured in the SpectraMax M5e Multimode Plate Reader (Molecular Device). Fluorescence was excited at 337 nm and two readings per well were taken: Reading 1 for time-gated energy transfer from Eu(K) to d2 (337 nm excitation, 668 nm emission, counting delay 75 microseconds, counting window 100 microseconds) and Reading 2 for Eu(K) time-gated fluorescence (337 nm excitation, 620 nm emission, counting delay 400 microseconds, counting window 400 microseconds). The TR-FRET signal was expressed as the ratio of fluorescence intensity: Flu665/Flu620×10,000.

serum RBP4 = test: Serum RBP4 measurement (ELISA) in mice after oral dosing; assay type: in vivo, mouse
Description: The Abca4−/− mouse model manifests accelerated accumulation of lipofuscin in the RPE and is considered a pre-clinical efficacy model for a drug reducing lipofuscin accumulation.
Ten week-old Abca4 null mutant mice (129/SV×C57BL/6J) bred as previously described were used in the study. Abca4−/− (knockout) and Abca4+/+(wild-type) mice were raised under 12 h on-off cyclic lighting with an in-cage illuminance of 30-50 lux. For long-term oral dosing A1120 was formulated into Purina 5035 rodent chow at Research Diets, Inc. (New Brunswick, N.J.) to ensure consistent 30 mg/kg daily oral dosing. Animals were administered the A1120-containing chow for 6 weeks.
Blood samples were collected from a tail vein at days 0, 21 and 42 of the A1120 dosing. Whole blood was drawn into a centrifuge tube and was let clot at room temperature for 30 min followed by centrifugation at 2,000×g for 15 minutes at +4° C. to collect serum. Serum RBP4 was measured using the RBP4 (mouse/rat) dual ELISA kit (Enzo Life Sciences) following the manufacturer's instructions.
Blood samples collected from the treatment and control groups at baseline, Day 21 and Day 42 were used to measure serum RBP4 in order to correlate RBP4 levels with reduction in formation of lipofuscin bisretinoids. […] Levels of lipofuscin fluorophores (A2E, A2-DHP-PE and all-trans-retinal dimer-PE) were determined at the end of the 42-day treatment period using quantitative HPLC.

[1] = Abca4−/− mice, 30 mg/kg daily oral in chow

O=C(O)c1ccccc1NC(=O)N1CCC(c2ccccc2C(F)(F)F)CC1 [Compound 1, 2(4-(2-(trifluoromethyl)phenyl)piperidine-1-carboxamido)benzoic acid]
Effect on ERG b-wave after photobleaching (ERG b-wave): does not reduce ERG b-wave after photobleaching | Antagonism of RBP4-TTR interaction in vitro (in words) (RBP4-TTR interaction): antagonize retinol-dependent RBP4-TTR interaction; also recorded: disrupt retinol-induced RBP4-TTR interaction; also recorded: antagonize RBP4-TTR interaction in vitro at biologically significant concentrations | Serum RBP4 reduction at Week 3 / Day 21 compared with Day 0 (serum RBP4; [1]): 64% | Serum RBP4 reduction at Week 6 / Day 42 compared with Day 0 (serum RBP4; [1]): 75% | Effect on serum RBP4 levels (in words) (serum RBP4; mouse, in vivo): reduce serum REBP4 levels | Reduction in the serum RBP4 level (serum RBP4; orally dosed for 3 weeks at 30 mg/kg, treated animals (Example 3)): ~70%
